From patent US20120128580A1, “PRESELECTION OF SUBJECTS FOR THERAPEUTIC TREATMENT WITH ELESCLOMOL BASED ON HYPOXIC STATUS” (SYNTA PHARMACEUTICALS CORP., priority 2010, published 2012) come the findings set out here.

Each structure is given as a SMILES string.

The subject of assay [1] is Stage 1V Metastatic melanoma. Description: Phase I/II study, elesclomol in combination with paclitaxel. The settings on record: i.v. weekly for three weeks of 28 day cycle. It counts as in vivo, human. On the procedure: For example, a Phase I/II study was performed to test elesclomol in combination with paclitaxel in patients with Stage 1V Metastatic melanoma. Subjects were dosed intravenously with 80 mg/m^2 of paclitaxel either with or without 213 mg/m^2 of elesclomol once per week for the first three weeks, followed by one week off (i.e., a 28 day cycle with dosing on days 1, 8, and 14) with the 28 day dosing cycle repeated until tumor progression, likely resulting in complete clearance of elesclomol between doses.

In assay [2] the test system is Stave IV Metastatic melanoma. Description: Phase III study, elesclomol in combination with paclitaxel versus paclitaxel alone. In kind it is in vivo, human. The following applies: for Median (months) Overall Survival / Median (months) PFS: Phase III; for Median Progression Free Survival: Phase III metastatic melanoma, chemotherapy-naive. On the procedure:
Further, a Phase III study was performed to test elesclomol in combination with paclitaxel versus paclitaxel alone in chemotherapy-naïve subjects with Stave IV Metastatic melanoma. Subjects with metastatic melanoma were randomized with a ratio of 1:1 to either the treatment arm (elesclomol 213 mg/m^2 in combination with paclitaxel 80 mg/m^2) or the control arm (paclitaxel 80 mg/m^2 alone) once per week for the first three weeks, followed by one week off (i.e., a 28 day cycle with dosing on days 1, 8, and 14) with the 28 day dosing cycle repeated until tumor progression, likely resulting in complete clearance of elesclomol between doses. The population enrolled into the study was to have baseline LDH levels limited to 2 times upper limit of normal (ULN) values.

For the compound `CC(=O)O[C@H]1C(=O)[C@@]2(C)[C@H]([C@H](OC(=O)c3ccccc3)[C@]3(O)C[C@H](OC(=O)[C@H](O)[C@@H](NC(=O)c4ccccc4)c4ccccc4)C(C)=C1C3(C)C)[C@]1(OC(C)=O)CO[C@@H]1C[C@@H]2O` [P alone, paclitaxel], the “Median Progression Free Survival” value is given as 1.6 (95% CI: 1.0-3.0) months in assay [1] (High LDH); 1.6 months in assay [1] (High LDH, listed as paclitaxel); 3.5 (95% CI: 1.6-7.3) months in assay [1] (Low LDH); 3.5 months in assay [1] (Low LDH, listed as paclitaxel); 1.9 (95% CI: 1.8-2.6) months in assay [2] (High LDH); 2.1 (95% CI: 1.9-3.6) months in assay [2] (Low LDH). The “Median (months) Overall Survival” value in assay [2] (High LDH (>1 × ULN)) is given as 8.1 months; in assay [2] (ITT Population), 11.7 months; in assay [2] (Low LDH (≦0.8 × ULN), listed as Paclitaxel alone), “Not Ach”; in assay [2] (Low LDH (≦0.8 × ULN), listed as paclitaxel alone) it was “not achieved”; in assay [2] (Normal LDH (≦1 × ULN)), 14.5 months. Moreover, the “Median (months) PFS” value is given as 1.9 months in assay [2] (High LDH (>1 × ULN)), 1.9 months in assay [2] (ITT Population), 2.1 months in assay [2] (Low LDH (≦0.8 × ULN)) and 2.1 months in assay [2] (Normal LDH (≦1 × ULN)).
